Measurements reported in ChEMBL document CHEMBL1201862, “PubChem BioAssay data set” (2004).
Each block holds one compound with its values, some of them ahead of it. The source made the active and inactive calls.

Assays:
[1] = target: T1, Microphthalmia-associated transcription factor (Homo sapiens, UniProt O75030); experiment: reducers of TRPM1 reporter luminescence, concentration series – cell-based, SK-MEL-5, cherry-picked, set 3, MITF inhibitor project, dose response (AID 493073); assay type: functional;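 note: SK-MEL-5 melanoma cells with luciferase driven by the MITF target TRPM1 promoter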
T1 sequence (O75030 whole entry): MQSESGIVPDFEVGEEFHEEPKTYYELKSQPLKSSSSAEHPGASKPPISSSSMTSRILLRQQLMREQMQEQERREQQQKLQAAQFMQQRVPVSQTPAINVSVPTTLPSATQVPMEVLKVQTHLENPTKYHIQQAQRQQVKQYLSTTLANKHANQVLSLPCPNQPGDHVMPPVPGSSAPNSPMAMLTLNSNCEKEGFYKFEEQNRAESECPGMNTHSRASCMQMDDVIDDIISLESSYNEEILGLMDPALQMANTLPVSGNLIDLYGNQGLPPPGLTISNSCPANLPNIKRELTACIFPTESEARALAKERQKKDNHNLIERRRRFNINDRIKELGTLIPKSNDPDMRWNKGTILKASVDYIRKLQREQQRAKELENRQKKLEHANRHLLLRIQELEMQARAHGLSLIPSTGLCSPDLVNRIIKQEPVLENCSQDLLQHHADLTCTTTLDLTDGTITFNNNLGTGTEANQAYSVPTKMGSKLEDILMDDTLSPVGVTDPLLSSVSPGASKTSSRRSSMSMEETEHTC

[2] = viability of PTEN-deleted HCT116 cells – cell-based, HCT116 PTEN knockout, dose response (AID 1047); assay type: functional;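 note: HCT116 colon tumor cells with PTEN knocked out; cells exposed to compound for 60 hours before readout; potency for loss of cell viability measured by luminescence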
cells [3] = assay type: functional, cell-based
cells [4] = assay type: functional, cell-based; remark: listed apart in the source
[5] = loss of viability in HepG2 cells – cell-based, CellTiter-Glo, cherry-picked, cytotoxicity control for Shn3 inhibitor project, dose response (AID 624134); assay type: functional
[6] = non-specific 3'UTR reporter inhibition in Clone20-Shn3RL – cell-based, Renilla luciferase, cherry-picked, counter-screen for Shn3 inhibitor project, dose response (AID 624133); assay type: functional
[7] = HEK-293T viability loss after treatment – luminescence, T-cell screen hits, cytotoxicity control for TCR NF-kB inhibitor project, dose response (AID 489026); assay type: functional, cell-based;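 note: cells exposed to compound about 14 hours before the viability readout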
Protein Wnt-3a = Protein Wnt-3a (Mus musculus, UniProt P27467); experiment: antagonism of Wnt3a pathway luciferase reporter – Wnt-LIGHT cells, luminescence, selectivity assay for Gli-SUFU antagonist project, dose response (AID 651570); assay type: functional; conditions: read-out: IC50_Mean;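 note: Wnt-LIGHT reporter cells stimulated with conditioned medium from Wnt3a-producing cells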
[8] = reduction of Shn3 3'UTR-driven luciferase in osteoblasts – cell-based, Clone20 osteoblasts, firefly luciferase, cherry-picked, dose response (AID 624132); assay type: functional;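 note: firefly luciferase luminescence from reporter carrying the Shn3 3'UTR in osteoblasts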
INS1 = experiment: INS-1E survival protection against cytokine death – cell-based, luminescence, retest, dose response (AID 449756); assay type: functional; conditions: Rattus norvegicus;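 note: cell death triggered by IL-1 beta plus TNF-alpha plus IFN-gamma mixture; protective hits raise ATP signal compared with cytokine alone wells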
[9] = target: G-protein coupled receptor 55 (Homo sapiens, UniProt Q9Y2T6); experiment: inhibition of LPI-stimulated GPR55 beta-arrestin translocation – imaging, U2OS, beta-arrestin-GFP, LPI agonist, primary screen (AID 2013); assay type: functional;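 note: antagonist potency measured as reduced agonist-driven arrestin aggregation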
Protein skinhead-1 = target: T2, Protein skinhead-1 (Caenorhabditis elegans, UniProt P34707); assay type: functional
T2 sequence (P34707 whole entry): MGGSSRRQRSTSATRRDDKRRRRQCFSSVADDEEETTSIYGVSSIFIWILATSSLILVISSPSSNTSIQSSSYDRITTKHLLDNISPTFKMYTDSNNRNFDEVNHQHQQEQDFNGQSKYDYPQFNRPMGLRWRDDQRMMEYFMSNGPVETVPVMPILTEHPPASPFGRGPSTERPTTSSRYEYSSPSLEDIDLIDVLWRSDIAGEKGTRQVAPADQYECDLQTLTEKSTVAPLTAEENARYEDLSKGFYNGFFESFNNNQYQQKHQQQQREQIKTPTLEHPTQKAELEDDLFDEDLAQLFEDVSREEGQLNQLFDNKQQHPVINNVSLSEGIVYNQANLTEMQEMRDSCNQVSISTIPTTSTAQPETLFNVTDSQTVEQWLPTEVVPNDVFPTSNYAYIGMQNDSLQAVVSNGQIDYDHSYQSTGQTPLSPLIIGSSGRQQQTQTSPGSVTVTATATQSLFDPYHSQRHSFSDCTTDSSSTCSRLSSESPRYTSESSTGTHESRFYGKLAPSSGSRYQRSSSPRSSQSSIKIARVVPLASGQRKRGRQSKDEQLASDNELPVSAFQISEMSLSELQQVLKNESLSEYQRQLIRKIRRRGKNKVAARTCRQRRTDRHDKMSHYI

[10] = Trypanosoma cruzi growth suppression in host cells – NIH3T3 host cells, beta-gal luminescence, confirmation (AID 2044); assay type: functional, cell-based;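 note: intracellular parasites grown in NIH/3T3 mouse fibroblasts as host cells; luminescent beta-galactosidase reporter signal from transgenic T. cruzi replicating inside host cells; inhibitors lower the luminescence signal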
[11] = NIH3T3 cell viability loss – ATP luminescence, mouse fibroblasts, counter-screen, dose response (AID 2010); assay type: functional, cell-based;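 note: cells exposed to compound for about 90 hours before reading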
Beta-galactosidase = Beta-galactosidase (Escherichia coli, UniProt Q8VNN2); experiment: detection-enzyme interference by beta-gal modulators – biochemical, E. coli enzyme, set 3, artefact control for CCR6 antagonist project, dose response (AID 504712); assay type: functional
Cysteine protease ATG4B = target: T3, Cysteine protease ATG4B (Homo sapiens, UniProt Q9Y4P1); assay type: functional;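 note: Fluorescence-based dose-response confirmation assay measuring inhibition of ATG4B activity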
T3 sequence (Q9Y4P1 whole entry): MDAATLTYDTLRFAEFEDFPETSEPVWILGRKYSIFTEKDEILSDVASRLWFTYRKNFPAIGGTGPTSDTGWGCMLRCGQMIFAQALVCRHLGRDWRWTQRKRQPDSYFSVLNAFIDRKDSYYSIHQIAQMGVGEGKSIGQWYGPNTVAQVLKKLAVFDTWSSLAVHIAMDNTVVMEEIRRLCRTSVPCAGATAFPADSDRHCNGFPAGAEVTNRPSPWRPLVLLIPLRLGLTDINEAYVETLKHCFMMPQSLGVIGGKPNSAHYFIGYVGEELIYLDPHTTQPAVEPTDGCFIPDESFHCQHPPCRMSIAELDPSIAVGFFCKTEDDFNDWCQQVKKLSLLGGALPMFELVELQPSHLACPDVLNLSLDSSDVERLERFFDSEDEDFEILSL

Phospholipase A2 = Phospholipase A2 (Homo sapiens, UniProt P04054); assay type: functional;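 note: confirmatory dose-response counterscreen on phospholipase A2, testing hits that came from an ultra-high-throughput screen for ATG4B inhibitors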
[12] = viability of HCT116 lacking mutant beta-catenin – cell-based, human colon tumor, dose response (AID 1045); assay type: functional;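 note: HCT116 colon tumor cells with beta catenin knocked out; cells exposed to compound for 60 hours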
Coagulation factor XII = target: T4, Coagulation factor XII (Homo sapiens, UniProt P00748); assay type: functional;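 note: activated factor XIIa alpha cleaving a fluorogenic AMC peptide substrate; inhibitor potency from loss of enzyme activity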
T4 sequence (P00748 whole entry): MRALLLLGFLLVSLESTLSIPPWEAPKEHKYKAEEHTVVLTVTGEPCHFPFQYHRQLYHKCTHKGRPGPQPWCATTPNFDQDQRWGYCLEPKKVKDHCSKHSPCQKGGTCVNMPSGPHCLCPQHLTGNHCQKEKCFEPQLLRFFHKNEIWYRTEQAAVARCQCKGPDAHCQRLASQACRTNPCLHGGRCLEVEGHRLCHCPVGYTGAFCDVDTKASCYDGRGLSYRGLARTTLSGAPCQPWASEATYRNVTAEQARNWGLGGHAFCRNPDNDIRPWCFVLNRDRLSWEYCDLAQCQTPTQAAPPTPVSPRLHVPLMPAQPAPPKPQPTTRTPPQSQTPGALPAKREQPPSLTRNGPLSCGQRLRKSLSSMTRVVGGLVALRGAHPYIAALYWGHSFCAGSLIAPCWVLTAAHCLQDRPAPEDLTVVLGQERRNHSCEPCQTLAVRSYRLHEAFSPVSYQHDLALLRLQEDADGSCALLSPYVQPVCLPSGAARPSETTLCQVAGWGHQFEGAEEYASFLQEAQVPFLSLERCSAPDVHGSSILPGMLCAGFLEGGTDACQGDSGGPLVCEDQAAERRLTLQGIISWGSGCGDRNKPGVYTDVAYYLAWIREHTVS

Prothrombin = Prothrombin (Homo sapiens, UniProt P00734); experiment: Thrombin 1536 HTS Dose Response Confirmation. [Related pubchem assays: 1046 (Thrombin 1536 HTS; hits were confirmed in this assay)]; assay type: functional
[13] = target: NAD-dependent protein deacylase sirtuin-5, mitochondrial (Homo sapiens, UniProt Q9NXA8); experiment: sirtuin-5 deacylation blockers, concentration series – biochemical, fluorescence imaging, cherry-pick, set 5, dose response (AID 720591);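 note: desuccinylation of succinyl peptide AMC substrate read as fluorescence after trypsin release; potency of inhibitors that lower fluorescence and may act on trypsin instead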
Sequence of NAD-dependent protein deacylase sirtuin-5, mitochondrial (Q9NXA8 whole entry): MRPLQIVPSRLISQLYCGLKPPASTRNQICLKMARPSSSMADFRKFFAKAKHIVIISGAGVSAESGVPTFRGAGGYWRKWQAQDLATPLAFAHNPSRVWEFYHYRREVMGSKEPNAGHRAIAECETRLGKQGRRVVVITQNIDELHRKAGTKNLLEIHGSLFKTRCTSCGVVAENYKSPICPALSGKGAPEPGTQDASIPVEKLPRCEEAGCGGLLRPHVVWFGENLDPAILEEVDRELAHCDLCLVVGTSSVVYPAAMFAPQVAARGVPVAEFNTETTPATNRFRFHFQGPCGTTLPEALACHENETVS

Sequence of Protein Wnt-3a (P27467 whole entry): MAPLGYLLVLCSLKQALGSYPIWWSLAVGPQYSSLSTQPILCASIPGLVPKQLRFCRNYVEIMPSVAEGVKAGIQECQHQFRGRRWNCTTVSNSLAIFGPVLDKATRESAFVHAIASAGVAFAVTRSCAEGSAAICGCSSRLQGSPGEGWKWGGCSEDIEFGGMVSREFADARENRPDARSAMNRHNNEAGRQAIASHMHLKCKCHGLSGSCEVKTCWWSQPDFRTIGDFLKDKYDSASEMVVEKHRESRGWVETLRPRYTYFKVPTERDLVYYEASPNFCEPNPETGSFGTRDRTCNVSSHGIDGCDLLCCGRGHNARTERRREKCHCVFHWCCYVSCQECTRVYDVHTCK
Sequence of Beta-galactosidase (Q8VNN2 whole entry): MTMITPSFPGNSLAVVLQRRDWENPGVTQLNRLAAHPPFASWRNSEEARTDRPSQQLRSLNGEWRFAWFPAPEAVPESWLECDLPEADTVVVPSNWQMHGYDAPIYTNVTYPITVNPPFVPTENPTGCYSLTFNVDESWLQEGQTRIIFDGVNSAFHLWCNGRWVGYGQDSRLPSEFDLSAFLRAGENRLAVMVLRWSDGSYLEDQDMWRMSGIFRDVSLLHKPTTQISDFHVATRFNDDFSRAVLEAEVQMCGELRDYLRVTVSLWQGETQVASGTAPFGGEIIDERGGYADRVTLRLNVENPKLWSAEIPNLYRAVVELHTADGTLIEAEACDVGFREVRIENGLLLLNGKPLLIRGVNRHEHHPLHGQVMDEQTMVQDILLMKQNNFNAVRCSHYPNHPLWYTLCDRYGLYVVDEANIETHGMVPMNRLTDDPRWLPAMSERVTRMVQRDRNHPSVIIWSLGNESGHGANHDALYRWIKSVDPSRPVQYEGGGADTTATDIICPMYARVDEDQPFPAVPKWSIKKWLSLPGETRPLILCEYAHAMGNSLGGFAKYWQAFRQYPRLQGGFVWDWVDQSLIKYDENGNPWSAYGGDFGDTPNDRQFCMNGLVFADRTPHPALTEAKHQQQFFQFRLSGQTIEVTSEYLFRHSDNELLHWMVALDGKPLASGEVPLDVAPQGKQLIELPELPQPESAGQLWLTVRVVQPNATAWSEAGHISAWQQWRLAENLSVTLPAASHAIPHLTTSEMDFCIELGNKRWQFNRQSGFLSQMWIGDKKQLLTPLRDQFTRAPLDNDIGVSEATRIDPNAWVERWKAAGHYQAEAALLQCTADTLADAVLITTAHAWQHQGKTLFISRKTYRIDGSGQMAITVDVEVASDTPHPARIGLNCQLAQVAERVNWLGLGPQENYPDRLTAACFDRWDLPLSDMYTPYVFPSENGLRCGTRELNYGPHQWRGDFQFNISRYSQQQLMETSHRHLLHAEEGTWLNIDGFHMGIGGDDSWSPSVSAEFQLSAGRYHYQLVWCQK
Sequence of Phospholipase A2 (P04054 whole entry): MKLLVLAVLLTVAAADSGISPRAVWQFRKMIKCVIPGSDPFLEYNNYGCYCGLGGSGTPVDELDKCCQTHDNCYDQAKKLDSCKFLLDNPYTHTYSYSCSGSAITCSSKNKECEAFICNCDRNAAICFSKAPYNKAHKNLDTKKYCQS
Sequence of G-protein coupled receptor 55 (Q9Y2T6 whole entry): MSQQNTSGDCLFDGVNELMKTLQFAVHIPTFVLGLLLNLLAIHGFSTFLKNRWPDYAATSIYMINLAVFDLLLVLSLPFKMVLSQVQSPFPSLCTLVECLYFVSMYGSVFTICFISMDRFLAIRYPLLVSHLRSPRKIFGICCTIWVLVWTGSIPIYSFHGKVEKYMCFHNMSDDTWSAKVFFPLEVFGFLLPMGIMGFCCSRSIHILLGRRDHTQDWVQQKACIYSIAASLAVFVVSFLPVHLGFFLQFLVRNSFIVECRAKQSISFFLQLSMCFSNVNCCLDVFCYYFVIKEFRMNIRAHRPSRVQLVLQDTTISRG

SMILES: COC(=O)c1ccc(/C=C(\C#N)C(=O)NC(C)c2ccccc2)cc1 (configuration not stated)
AC50 [1]: 10.7 µM (active) | EC50 [2]: 47.1 µM (active)

SMILES: O=C(O)/C=C/C(=O)NCc1csc2ccccc12
IC50 (cells [3]): > 29.9 µM (inactive) | EC50 (cells [4]): > 29.9 µM (inactive)

SMILES: COc1cccc(CN(C)C(=O)c2cc(COc3ccc4ncccc4c3)on2)c1
AC50 [5]: 3.93 µM (active) | AC50 [6]: 2.1 µM (active) | IC50 [7]: 59.9 µM (inactive) | IC50 (Protein Wnt-3a): 1.02 µM (active) | AC50 [8]: 1.49 µM (active) | AC50 (INS1): 5.13 µM (active)

IC50 [9]: 2.3 µM (active)
SMILES: CC(C)C[C@H](NC(=O)c1[nH]cnc1C(=O)NCc1ccc(CNC(=O)OC(C)(C)C)cc1)C(=O)OCc1ccccc1

SMILES: O=[N+]([O-])c1ccc(/C=C/C2=NN(c3ccccc3)C(c3ccco3)C2)o1 (configuration not stated)
IC50 (Protein skinhead-1): > 100 µM (inactive) | EC50 [10]: 0.427 µM (active) | EC50 [11]: 18.5 µM (active) | IC50 (Beta-galactosidase): 41 µM (inactive)

SMILES: COc1ccc(C(C)=O)cc1CSc1nc2ccccc2c(=O)n1-c1cccc(C)c1
IC50 (Cysteine protease ATG4B): 0.502 µM (active) | IC50 (Phospholipase A2): 0.321 µM (active) | EC50 [12]: 29.1 µM (active) | EC50 [2]: 28.9 µM (active)

SMILES: Cc1c(C(C)C)c(=O)n(-c2ccc(S(=O)(=O)NC3CCCCC3)cc2)n1C
AC50 [5]: 3.93 µM (active) | AC50 [6]: 1.76 µM (active) | IC50 (Protein Wnt-3a): 2.91 µM (active) | AC50 [8]: 1.06 µM (active)

IC50 (Coagulation factor XII): > 50 µM (inactive) | IC50 (Prothrombin): > 50 µM (not active)
SMILES: Cc1cc(C(=O)Nc2nc(C)c(C(=O)N(C)C)s2)ccc1[N+](=O)[O-]

AC50 [13]: > 30 µM (inactive)
SMILES: Cc1c(-c2ccc(OCCN3CCOCC3)cc2)c(=O)oc2ccc3ccccc3c12

AC50 [1]: 1.74 µM (active)
SMILES: CC[n+]1c(C=C2C=CN(C)C=C2)ccc2cc(C)ccc21
